Patent US20110105748A1, “Novel beta-phenyl-alpha-oxysubstituted propionic derivatives: process for its preparation and their use in the preparation of pharmaceutically important compounds” (priority 2001, published 2011)

Molecule `CCOC(=O)[C@H](Cc1ccc(N)cc1)OCC` [Example 6, (S)-Ethyl 2-ethoxy-3-(4-aminophenyl)propionate] has a melting point of 74 to 76 °C.
